From paper PMC5564600 (Oncotarget, 2017)
Where two headings read alike, the source gives them in different places.

Columns and labels:
Assay in all cases: biochemical
Type in all cases: binding
panel of 442 kinases [1] = target: T1, panel of 442 kinases (Homo sapiens, UniProt Q9P2K8, S808G); settings: kinase GCN2(Kin.Dom.2,S808G); for remaining activity at 1 µM: read-out: % of control at 1 µM
T1 construct: purchased Ambit Biosciences (scanMAXX KINOMEscan)

panel of 442 kinases [2] = target: T2, panel of 442 kinases (Homo sapiens, UniProt P54646); settings: AMPK-alpha2; for remaining activity at 1 µM: read-out: % of control at 1 µM
T2 construct: purchased Ambit Biosciences (scanMAXX KINOMEscan)

panel of 442 kinases [3] = target: T3, panel of 442 kinases (Homo sapiens, UniProt Q9BYT3); settings: kinase STK33; for remaining activity at 1 µM: read-out: STK33 (% of control at 1 µM)
T3 construct: purchased Ambit Biosciences (scanMAXX KINOMEscan)

panel of 442 kinases [4] = target: T4, panel of 442 kinases (Homo sapiens, UniProt Q8TDX7); settings: kinase NEK7; for remaining activity at 1 µM: read-out: % of control at 1 µM
T4 construct: purchased Ambit Biosciences (scanMAXX KINOMEscan)
T4 sequence (Q8TDX7 whole entry): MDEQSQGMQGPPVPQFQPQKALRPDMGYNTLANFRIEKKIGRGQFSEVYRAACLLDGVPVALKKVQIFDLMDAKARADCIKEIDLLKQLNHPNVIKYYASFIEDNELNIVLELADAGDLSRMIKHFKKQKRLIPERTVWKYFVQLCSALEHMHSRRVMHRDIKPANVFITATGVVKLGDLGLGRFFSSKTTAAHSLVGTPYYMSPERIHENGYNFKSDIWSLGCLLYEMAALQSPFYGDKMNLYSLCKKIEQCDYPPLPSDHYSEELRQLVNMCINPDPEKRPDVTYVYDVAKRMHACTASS

panel of 442 kinases [5] = target: T5, panel of 442 kinases (Homo sapiens, UniProt P35968); settings: kinase VEGFR2; for remaining activity at 1 µM: read-out: VEGFR2 (% of control at 1 µM)
T5 construct: purchased Ambit Biosciences (scanMAXX KINOMEscan)
T5 sequence (P35968 20-1356): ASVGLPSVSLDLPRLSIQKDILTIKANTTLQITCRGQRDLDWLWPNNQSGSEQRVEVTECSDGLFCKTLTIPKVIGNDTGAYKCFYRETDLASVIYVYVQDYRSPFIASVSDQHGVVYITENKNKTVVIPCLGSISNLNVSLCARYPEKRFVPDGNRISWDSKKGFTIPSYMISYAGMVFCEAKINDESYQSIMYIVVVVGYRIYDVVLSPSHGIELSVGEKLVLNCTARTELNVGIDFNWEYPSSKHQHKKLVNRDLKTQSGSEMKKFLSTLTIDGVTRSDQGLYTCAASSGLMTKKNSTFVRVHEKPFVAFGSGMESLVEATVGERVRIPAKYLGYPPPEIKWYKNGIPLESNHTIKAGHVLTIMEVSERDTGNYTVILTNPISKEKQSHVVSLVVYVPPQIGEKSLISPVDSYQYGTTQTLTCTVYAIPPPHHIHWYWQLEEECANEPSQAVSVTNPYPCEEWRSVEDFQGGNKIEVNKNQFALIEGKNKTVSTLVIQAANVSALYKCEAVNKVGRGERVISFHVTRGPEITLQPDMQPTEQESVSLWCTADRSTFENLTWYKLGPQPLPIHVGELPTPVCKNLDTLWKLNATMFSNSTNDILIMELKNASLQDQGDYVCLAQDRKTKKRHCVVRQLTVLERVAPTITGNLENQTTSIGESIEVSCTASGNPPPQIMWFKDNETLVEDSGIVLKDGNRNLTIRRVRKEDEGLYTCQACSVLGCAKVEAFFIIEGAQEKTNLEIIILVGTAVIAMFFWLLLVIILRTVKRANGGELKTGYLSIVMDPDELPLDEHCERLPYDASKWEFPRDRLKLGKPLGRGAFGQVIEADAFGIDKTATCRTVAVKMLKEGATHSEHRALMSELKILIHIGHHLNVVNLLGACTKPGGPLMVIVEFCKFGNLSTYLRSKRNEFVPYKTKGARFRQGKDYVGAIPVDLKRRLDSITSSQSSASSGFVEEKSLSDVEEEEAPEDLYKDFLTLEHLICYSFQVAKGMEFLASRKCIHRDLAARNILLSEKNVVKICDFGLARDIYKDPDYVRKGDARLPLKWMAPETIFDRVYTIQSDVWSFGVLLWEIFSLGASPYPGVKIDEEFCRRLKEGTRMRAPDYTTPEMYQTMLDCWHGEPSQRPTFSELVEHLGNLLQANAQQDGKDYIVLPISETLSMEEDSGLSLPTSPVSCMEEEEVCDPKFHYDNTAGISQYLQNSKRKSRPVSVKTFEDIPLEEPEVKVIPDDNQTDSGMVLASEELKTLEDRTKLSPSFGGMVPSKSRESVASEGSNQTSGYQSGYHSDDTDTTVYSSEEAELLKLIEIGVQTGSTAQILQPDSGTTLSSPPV

panel of 442 kinases [6] = target: T6, panel of 442 kinases (Plasmodium falciparum, UniProt P62344); settings: kinase PFCDPK1(P.falciparum); for remaining activity at 1 µM: read-out: % of control at 1 µM; for remaining activity at 10 µM: read-out: % of control at 10 µM
T6 construct: purchased Ambit Biosciences (scanMAXX KINOMEscan)
T6 sequence (P62344 whole entry): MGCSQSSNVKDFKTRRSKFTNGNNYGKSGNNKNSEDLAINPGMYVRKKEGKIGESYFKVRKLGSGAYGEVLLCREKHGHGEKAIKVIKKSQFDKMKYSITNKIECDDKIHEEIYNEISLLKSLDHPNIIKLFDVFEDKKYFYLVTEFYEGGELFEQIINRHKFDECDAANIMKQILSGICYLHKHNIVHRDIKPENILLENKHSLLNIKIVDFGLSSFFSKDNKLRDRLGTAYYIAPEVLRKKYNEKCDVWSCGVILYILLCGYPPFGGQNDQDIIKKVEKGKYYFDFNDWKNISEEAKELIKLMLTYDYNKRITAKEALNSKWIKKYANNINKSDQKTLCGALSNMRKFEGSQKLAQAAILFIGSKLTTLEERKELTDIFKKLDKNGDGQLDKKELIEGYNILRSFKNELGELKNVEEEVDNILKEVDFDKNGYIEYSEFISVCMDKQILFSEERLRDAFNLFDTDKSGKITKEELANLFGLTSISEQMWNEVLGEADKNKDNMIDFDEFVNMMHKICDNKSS

panel of 442 kinases [7] = target: T7, panel of 442 kinases (Homo sapiens, UniProt P00519); settings: for remaining activity at 1 µM: read-out: % of control at 1 µM; for remaining activity at 10 µM: read-out: % of control at 10 µM
T7 construct: purchased Ambit Biosciences (scanMAXX KINOMEscan)

panel of 442 kinases [8] = target: T8, panel of 442 kinases (Homo sapiens, UniProt Q9NQU5); settings: kinase PAK6; for remaining activity at 1 µM: read-out: % of control at 1 µM
T8 construct: purchased Ambit Biosciences (scanMAXX KINOMEscan)

panel of 442 kinases [9] = target: T9, panel of 442 kinases (Homo sapiens, UniProt P04629); settings: kinase TRKA; for remaining activity at 1 µM: read-out: TRKA (% of control at 1 µM)
T9 construct: purchased Ambit Biosciences (scanMAXX KINOMEscan)

panel of 442 kinases [10] = target: T10, panel of 442 kinases (Homo sapiens, UniProt P57058); settings: kinase HUNK; for remaining activity at 1 µM: read-out: % of control at 1 µM
T10 construct: purchased Ambit Biosciences (scanMAXX KINOMEscan)
T10 sequence (P57058 1-714): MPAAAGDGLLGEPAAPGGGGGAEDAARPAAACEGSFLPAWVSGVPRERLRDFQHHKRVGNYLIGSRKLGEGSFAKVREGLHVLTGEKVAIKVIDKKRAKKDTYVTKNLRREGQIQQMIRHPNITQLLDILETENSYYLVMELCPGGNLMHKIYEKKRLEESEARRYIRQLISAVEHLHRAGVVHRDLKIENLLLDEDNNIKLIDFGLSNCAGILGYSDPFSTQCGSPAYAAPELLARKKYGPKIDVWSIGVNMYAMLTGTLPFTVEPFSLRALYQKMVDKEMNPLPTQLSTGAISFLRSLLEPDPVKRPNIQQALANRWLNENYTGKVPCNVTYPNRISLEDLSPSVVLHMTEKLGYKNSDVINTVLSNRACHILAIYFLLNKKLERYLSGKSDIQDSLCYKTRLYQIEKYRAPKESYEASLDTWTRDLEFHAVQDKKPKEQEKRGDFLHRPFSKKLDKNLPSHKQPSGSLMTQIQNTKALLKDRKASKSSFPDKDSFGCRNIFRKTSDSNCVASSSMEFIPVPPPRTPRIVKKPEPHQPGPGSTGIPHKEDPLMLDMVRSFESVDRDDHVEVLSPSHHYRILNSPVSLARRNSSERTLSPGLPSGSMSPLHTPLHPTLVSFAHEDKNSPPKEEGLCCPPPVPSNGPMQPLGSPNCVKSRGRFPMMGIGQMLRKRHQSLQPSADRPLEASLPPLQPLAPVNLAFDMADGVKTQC

panel of 442 kinases [11] = target: T11, panel of 442 kinases (Homo sapiens, UniProt O94768); settings: DRAK2; for remaining activity at 1 µM: read-out: % of control at 1 µM
T11 construct: purchased Ambit Biosciences (scanMAXX KINOMEscan)
T11 sequence (O94768 1-372): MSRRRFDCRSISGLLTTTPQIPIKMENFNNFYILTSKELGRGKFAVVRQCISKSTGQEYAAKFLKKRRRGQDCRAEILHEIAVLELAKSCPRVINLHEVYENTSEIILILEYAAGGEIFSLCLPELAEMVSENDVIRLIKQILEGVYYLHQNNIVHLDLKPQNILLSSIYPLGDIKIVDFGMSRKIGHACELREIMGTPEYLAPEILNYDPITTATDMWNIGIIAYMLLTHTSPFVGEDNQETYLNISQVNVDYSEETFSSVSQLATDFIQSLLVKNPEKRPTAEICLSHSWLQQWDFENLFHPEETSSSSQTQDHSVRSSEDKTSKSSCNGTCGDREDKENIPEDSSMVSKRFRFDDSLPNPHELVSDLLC

panel of 442 kinases [12] = target: T12, panel of 442 kinases (Homo sapiens, UniProt P51451); settings: BLK; for remaining activity at 1 µM: read-out: % of control at 1 µM
T12 construct: purchased Ambit Biosciences (scanMAXX KINOMEscan)

panel of 442 kinases [13] = target: T13, panel of 442 kinases (Homo sapiens, UniProt Q9BRS2); settings: kinase RIOK1; for remaining activity at 1 µM: read-out: RIOK1 (% of control at 1 µM)
T13 construct: purchased Ambit Biosciences (scanMAXX KINOMEscan)
T13 sequence (Q9BRS2 1-568): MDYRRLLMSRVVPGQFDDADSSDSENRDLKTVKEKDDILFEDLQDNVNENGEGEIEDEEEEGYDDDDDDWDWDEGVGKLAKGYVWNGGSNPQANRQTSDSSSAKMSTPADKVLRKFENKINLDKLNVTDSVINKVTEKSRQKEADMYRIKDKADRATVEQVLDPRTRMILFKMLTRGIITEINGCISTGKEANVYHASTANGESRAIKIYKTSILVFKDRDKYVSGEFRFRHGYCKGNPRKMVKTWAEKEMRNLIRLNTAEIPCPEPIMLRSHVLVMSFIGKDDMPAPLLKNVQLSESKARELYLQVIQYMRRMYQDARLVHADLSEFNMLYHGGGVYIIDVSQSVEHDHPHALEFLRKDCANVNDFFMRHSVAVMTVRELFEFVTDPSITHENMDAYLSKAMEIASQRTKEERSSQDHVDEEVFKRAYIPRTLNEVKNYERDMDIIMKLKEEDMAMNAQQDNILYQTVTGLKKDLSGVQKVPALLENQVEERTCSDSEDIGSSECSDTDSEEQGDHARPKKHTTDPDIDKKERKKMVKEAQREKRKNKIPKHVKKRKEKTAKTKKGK

panel of 442 kinases [14] = target: T14, panel of 442 kinases (Homo sapiens, UniProt Q9H2G2); settings: kinase SLK; for remaining activity at 1 µM: read-out: SLK (% of control at 1 µM)
T14 construct: purchased Ambit Biosciences (scanMAXX KINOMEscan)
T14 sequence (Q9H2G2 whole entry): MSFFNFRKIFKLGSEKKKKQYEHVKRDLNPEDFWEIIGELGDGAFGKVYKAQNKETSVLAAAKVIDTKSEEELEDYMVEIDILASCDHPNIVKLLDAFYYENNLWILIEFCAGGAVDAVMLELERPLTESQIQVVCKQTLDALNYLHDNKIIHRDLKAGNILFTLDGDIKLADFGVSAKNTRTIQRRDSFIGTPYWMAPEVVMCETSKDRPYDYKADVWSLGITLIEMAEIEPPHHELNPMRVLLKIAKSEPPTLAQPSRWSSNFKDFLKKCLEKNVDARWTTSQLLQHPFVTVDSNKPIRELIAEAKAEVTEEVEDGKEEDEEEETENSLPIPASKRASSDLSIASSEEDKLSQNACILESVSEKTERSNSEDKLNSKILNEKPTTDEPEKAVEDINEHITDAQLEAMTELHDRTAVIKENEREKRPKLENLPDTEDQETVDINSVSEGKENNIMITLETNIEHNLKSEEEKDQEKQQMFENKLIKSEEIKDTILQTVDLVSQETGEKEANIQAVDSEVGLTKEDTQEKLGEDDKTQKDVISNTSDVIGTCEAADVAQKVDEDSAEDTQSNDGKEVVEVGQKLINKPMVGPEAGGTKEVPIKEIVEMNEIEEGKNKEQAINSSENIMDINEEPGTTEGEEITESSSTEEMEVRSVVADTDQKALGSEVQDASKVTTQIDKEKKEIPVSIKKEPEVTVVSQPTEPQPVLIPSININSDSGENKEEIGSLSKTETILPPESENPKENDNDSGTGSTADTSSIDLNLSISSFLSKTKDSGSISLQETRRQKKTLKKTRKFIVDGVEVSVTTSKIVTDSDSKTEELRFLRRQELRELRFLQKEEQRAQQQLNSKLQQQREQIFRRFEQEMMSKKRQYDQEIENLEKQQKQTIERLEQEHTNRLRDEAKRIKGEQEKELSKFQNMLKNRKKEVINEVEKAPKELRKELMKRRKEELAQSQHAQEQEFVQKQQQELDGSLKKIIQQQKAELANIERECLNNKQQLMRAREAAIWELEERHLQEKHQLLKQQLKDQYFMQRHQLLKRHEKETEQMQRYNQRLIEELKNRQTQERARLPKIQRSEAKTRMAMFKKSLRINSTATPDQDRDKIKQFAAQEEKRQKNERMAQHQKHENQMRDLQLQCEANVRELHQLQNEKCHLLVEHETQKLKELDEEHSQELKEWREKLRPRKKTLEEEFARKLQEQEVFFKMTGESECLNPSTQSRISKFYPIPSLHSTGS

[15] = 10 µM, read-out: % of control at 10 µM

T1 sequence (Q9P2K8 whole entry S808G): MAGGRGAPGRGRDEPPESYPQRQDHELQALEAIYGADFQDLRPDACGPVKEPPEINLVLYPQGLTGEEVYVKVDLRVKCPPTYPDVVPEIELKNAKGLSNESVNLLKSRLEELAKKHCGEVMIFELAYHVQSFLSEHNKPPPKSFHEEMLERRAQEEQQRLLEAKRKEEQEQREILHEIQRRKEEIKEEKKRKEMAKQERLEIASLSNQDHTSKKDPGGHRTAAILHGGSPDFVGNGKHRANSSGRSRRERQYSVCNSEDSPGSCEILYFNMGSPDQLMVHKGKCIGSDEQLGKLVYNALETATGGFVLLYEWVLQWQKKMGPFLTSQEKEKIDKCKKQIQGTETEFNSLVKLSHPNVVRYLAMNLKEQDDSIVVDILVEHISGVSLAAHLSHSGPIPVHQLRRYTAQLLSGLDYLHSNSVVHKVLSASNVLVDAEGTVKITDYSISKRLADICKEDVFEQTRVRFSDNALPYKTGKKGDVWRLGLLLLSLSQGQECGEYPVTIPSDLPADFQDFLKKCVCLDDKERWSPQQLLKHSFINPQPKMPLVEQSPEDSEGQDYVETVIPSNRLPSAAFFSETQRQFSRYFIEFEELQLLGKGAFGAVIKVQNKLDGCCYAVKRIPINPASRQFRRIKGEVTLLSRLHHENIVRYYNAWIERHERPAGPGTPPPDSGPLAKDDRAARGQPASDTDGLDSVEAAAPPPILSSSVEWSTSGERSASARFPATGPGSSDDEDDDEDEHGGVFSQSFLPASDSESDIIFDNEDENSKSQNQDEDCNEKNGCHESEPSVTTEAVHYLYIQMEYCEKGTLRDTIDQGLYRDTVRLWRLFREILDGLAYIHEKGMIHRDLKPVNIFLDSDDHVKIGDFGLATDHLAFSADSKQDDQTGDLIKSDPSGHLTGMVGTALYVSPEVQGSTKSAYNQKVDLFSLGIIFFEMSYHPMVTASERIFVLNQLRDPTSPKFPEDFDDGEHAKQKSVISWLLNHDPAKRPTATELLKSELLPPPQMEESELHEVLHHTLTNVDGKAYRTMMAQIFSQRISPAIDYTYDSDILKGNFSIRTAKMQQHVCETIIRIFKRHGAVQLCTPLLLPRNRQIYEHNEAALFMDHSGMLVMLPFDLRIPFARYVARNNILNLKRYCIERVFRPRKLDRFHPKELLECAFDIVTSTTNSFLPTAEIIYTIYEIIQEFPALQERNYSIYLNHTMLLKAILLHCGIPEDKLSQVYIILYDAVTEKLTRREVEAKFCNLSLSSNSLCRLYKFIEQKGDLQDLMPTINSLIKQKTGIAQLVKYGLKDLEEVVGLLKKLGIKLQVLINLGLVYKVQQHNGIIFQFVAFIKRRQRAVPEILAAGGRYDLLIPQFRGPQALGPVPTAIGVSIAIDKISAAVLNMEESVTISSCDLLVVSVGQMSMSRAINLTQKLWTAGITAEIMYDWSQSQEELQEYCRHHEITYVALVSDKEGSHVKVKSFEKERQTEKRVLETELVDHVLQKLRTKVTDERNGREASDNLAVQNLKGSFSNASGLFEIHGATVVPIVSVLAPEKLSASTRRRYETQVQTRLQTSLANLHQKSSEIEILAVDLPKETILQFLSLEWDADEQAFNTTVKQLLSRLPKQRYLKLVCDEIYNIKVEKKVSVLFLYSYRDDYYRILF

| SMILES | remaining activity at 1 µM (panel of 442 kinases [1]) [%] | remaining activity at 1 µM (panel of 442 kinases [2]) [%] | remaining activity at 1 µM (panel of 442 kinases [3]) [%] | remaining activity at 1 µM (panel of 442 kinases [4]) [%] | remaining activity at 1 µM (panel of 442 kinases [5]) [%] | remaining activity at 1 µM (panel of 442 kinases [6]) [%] | remaining activity at 10 µM (panel of 442 kinases [6]) [%] | remaining activity at 1 µM (panel of 442 kinases [7]; ABL1-nonphosphorylated) [%] | remaining activity at 1 µM (panel of 442 kinases [7]; ABL1-phosphorylated) [%] | remaining activity at 1 µM (panel of 442 kinases [8]) [%] | remaining activity at 1 µM (panel of 442 kinases [9]) [%] | remaining activity at 1 µM (panel of 442 kinases [10]) [%] | remaining activity at 1 µM (panel of 442 kinases [11]) [%] | remaining activity at 1 µM (panel of 442 kinases [12]) [%] | remaining activity at 1 µM (panel of 442 kinases [13]) [%] | remaining activity at 1 µM (panel of 442 kinases [14]) [%] | further results |
| --- | --- | --- | --- | --- | --- | --- | --- | --- | --- | --- | --- | --- | --- | --- | --- | --- | --- |
| Nc1cc(C(F)(F)F)c(-c2cc(N3CCOCC3)nc(N3CCOCC3)n2)cn1 [Buparlisib] | 100 | 100 | 90 | 100 | 87 | 99 | 100 | 100 | 86 | 96 | 97 | 100 | 100 | 93 | 89 | 100 | remaining activity at 10 µM (panel of 442 kinases [1]; [15]): 100%; remaining activity at 10 µM (panel of 442 kinases [2]; [15]): 100%; remaining activity at 10 µM (panel of 442 kinases [3]; 10 µM, read-out: STK33 (% of control at 10 µM)): 97%; remaining activity at 10 µM (panel of 442 kinases [4]; [15]): 94%; remaining activity at 10 µM (panel of 442 kinases [5]; 10 µM, read-out: VEGFR2 (% of control at 10 µM)): 100%; remaining activity at 10 µM (panel of 442 kinases [7]; ABL1-nonphosphorylated): 100%; remaining activity at 10 µM (panel of 442 kinases [7]; ABL1-phosphorylated): 100%; remaining activity at 10 µM (panel of 442 kinases [8]; [15]): 100%; remaining activity at 10 µM (panel of 442 kinases [9]; 10 µM, read-out: TRKA (% of control at 10 µM)): 80%; remaining activity at 10 µM (panel of 442 kinases [10]; [15]): 100%; remaining activity at 10 µM (panel of 442 kinases [11]; [15]): 100%; remaining activity at 10 µM (panel of 442 kinases [12]; [15]): 100%; remaining activity at 10 µM (panel of 442 kinases [13]; 10 µM, read-out: RIOK1 (% of control at 10 µM)): 81%; remaining activity at 10 µM (panel of 442 kinases [14]; 10 µM, read-out: SLK (% of control at 10 µM)): 100% |
| Cn1c(=O)n(-c2ccc(C(C)(C)C#N)cc2)c2c3cc(-c4cnc5ccccc5c4)ccc3ncc21 [Dactolisib, 2-methyl-2-[4-(3-methyl-2-oxo-8-quinolin-3-yl-2,3-dihydroimidazo[4,5-c]quinolin-1-yl)-phenyl] propionitrile] | 87 | 100 | 100 | 90 | 100 | 89 | – | 100 | 81 | 92 | – | 93 | 68 | 97 | 66 | 89 | – |
| COc1ncc(-c2ccc3nccc(-c4ccnnc4)c3c2)cc1NS(=O)(=O)c1ccc(F)cc1F [Omipalisib] | 100 | 99 | 100 | 100 | 78 | 100 | – | 100 | 98 | 100 | 80 | 74 | 100 | 94 | 100 | 100 | – |
| CS(=O)(=O)N1CCN(Cc2cc3nc(-c4cccc5[nH]ncc45)nc(N4CCOCC4)c3s2)CC1 [Pictilisib, 2-(1H-indazol-4-yl)-6-(4-methanesulfonyl-piperazin-1-ylmethyl)-4-morpholin-4-yl-t hieno[3,2-d]pyrimidine] | – | – | – | – | – | 100 | 63 | – | – | – | – | – | – | – | – | – | – |
| FC(F)c1nc2ccccc2n1-c1nc(N2CCOCC2)nc(N2CCOCC2)n1 [ZSTK474, 2-(difluoromethyl)-1-[4,6-di(4-morpholinyl)-1,3,5-triazin-2-yl]-1H-benzimidazole] | 89 | 100 | 100 | 68 | 100 | 82 | – | 100 | 100 | 100 | 100 | 100 | 86 | 100 | 84 | 100 | – |
